Measured values as given in US11173144B2, “Adrenergic receptor modulating compounds and methods of using the same” (The Board of Trustees of the Leland Stanford Junior …, priority 2016, dated 2021).
Read-outs that look alike come from different tables or passages of the source.

Assays:
5-HT2B = 5-HT2B (Homo sapiens (Human), UniProt P41595); assay: CNS target panel screen: 5-HT2B; assay type: binding
Text: (§1) From a drug development perspective, characterizing the off-target effects of lead compounds is an important issue, as interactions with off-target molecules may lead to undesirable side effects. Thus we screened xamoterol (S) and the key compound compound 43 against a panel of CNS relevant targets, including G-protein coupled receptor and transporters.

D3 dopaminergic receptor = D3 dopaminergic receptor (Homo sapiens (Human), UniProt P35462); assay: CNS target panel screen: D3 dopaminergic receptor; assay type: binding
Chain of D3 dopaminergic receptor (P35462 whole entry): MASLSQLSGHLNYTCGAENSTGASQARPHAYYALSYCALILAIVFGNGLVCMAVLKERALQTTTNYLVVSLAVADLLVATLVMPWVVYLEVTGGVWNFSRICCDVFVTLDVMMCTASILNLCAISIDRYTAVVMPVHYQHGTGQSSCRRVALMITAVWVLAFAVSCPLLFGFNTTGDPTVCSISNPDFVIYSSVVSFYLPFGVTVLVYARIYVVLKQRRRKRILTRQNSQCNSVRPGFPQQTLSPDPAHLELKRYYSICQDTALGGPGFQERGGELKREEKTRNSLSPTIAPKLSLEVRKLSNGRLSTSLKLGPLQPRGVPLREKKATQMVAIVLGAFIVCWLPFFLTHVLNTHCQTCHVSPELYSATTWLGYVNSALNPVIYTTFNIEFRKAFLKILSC
Text: as §1, with “transporters. […].” for “transporters.”

5-HT1A = 5-HT1A (Homo sapiens (Human), UniProt P08908); assay: CNS target panel screen: 5-HT1A; assay type: binding
Chain of 5-HT1A (P08908 whole entry, species assumed): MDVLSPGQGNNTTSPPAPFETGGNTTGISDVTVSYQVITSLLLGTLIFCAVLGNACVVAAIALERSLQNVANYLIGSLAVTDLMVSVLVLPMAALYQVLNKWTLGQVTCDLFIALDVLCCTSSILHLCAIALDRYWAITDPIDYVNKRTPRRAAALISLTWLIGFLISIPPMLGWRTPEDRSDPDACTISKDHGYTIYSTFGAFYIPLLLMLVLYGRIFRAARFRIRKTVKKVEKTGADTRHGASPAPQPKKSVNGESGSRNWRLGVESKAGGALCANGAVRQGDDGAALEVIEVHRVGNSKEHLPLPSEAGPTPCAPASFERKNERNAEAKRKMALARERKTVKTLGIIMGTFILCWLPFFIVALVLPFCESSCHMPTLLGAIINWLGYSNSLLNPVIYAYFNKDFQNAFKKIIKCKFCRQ
Text: as §1, with “transporters. […].” for “transporters.”

[1] = tested on: panel of CNS relevant targets, including G-protein coupled receptor and transporters; assay: Screen against a panel of CNS relevant targets (off-target affinity); assay type: binding
Text: as §1, with “transporters. […].” for “transporters.”

α1D adrenergic receptor = α1D adrenergic receptor (Homo sapiens (Human), UniProt P25100); assay: CNS target panel screen: α1D adrenergic receptor; assay type: binding
Chain of α1D adrenergic receptor (P25100 whole entry): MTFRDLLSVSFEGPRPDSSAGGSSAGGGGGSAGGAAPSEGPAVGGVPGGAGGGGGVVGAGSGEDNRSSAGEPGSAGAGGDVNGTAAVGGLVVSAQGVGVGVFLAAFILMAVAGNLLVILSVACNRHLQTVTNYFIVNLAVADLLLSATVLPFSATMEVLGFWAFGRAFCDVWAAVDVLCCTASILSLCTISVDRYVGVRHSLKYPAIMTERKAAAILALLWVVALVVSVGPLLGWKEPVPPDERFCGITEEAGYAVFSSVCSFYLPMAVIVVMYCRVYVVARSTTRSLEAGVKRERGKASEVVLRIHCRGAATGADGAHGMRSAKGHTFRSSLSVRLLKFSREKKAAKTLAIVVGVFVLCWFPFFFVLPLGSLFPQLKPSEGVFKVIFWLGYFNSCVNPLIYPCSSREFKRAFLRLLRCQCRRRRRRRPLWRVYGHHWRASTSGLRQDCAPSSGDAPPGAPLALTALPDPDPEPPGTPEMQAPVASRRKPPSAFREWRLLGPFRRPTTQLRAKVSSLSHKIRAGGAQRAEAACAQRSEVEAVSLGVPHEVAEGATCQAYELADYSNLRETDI
Text: as §1, with “transporters. […].” for “transporters.”

[2] = tested on: LPS-induced TNF-α response; assay: In vivo LPS assay; design: species or system C57BI/6J mice; details: mice, 3 mg/kg 15 min prior to LPS, 90 min post-LPS
Method: Amplification is performed using StepOnePlus (Applied Biosystems).
Following injections, mice are single-housed. At 90 min post-LPS/saline, mice are deeply anesthetized with isoflurane and blood is collected from the right ventricle via cardiac puncture (23 g needle) into lithium heparin-containing vials (BD microtainer plasma tubes). Plasma is separated by centrifugation (11,000 rpm for 3 minutes) within 30 min of collection and stored at −80° C. until analysis. The concentration of TNF-α in the collected plasma is measured by ELISA (Invitrogen, KMC3012) according to the manufacturer's instruction.

[3] = tested on: heart rate and blood pressure; assay: Cardiovascular studies (heart rate and blood pressure) in anesthetized rats; assay type: in vivo, Sprague-Dawley rats; details: 3 mg/kg subcutaneous
Method: Adult rats are anesthetizes using isoflurane and are accommodated on a heated platform warmed to 36° C. A jugular catheter (for IV administration of the drug) and an intra-arterial catheter (tail artery, for blood pressure measurements) are implanted under 2.5% isoflurane. To avoid clotting, all animals received a single dose of heparin after intravenous cannulation. Intra-arterial catheter was then connected to a pressure transducer coupled to a computerized data acquisition system (PowerLab) and its application software (LabChart 8)[AD Instruments (Australia)]. Mean blood pressure and the hear rate was analyzed and plotted using prism software.
Briefly, rats are anesthetized with 3-4% isoflurance and 1 cm longitudinal incision is made on the ventral aspect of the tail exposing the tail artery. Polyethylene catheter (PE50) filled with heparinized saline is then inserted into the tail artery and connected to blood pressure transducer system. After assuring absence of any air bubbles, 5-10 min of baseline systolic and diastolic blood pressure along with heart rate are recorded using LabChart Pro (AD Instruments).
FIG. 9 illustrates the effect of exemplary compounds on average heart rate in a rat in comparison with reference compounds isoprenaline and ICI 118,551. FIG. 10 illustrates the effect of exemplary compounds on blood pressure in a rat in comparison with reference compounds isoprenaline and ICI 118,551.

[4] = tested on: LPS-induced TNF-α production in primary microglia; assay: In vitro primary microglia TNF-α assay (LPS stimulation, ELISA); assay type: cell-based, rat; details: rat primary microglia, LPS 10 ng/ml, compound 10 μM, 4 h; read-out: inhibition of LPS-induced TNF-α production
Text: Mixed glial cells are obtained from the cerebral cortex of Sprague Dawley rat pups at postnatal days 1-3. Briefly, neonates are euthanized by decapitation and their brain tissues are collected for isolation of cortex. The isolated cortex was then trypsinized, triturated, and placed onto tissue culture flasks in DMEM supplemented with 10% fetal bovine serum and 1% Penicillin/Streptomycin. After 10 days in vitro, microglia are harvested by gentle shaking of the growth flask, plated in a 96 well plate at a density of 30,000 cells/well, and incubated at 37° C. overnight. […] Following the 4 h incubation, cell media is collected and the concentration of TNF-α is measured by ELISA (Invitrogen, KRC3011) according to the manufacturer's instruction.
The effects of selected compounds on cellular inflammatory response to LPS are determined in primary microglia extracted from a rat. Briefly, mixed glial cells are obtained from the cerebral cortex of Sprague Dawley rat pups at postnatal days 1-3 and cultured in DMEM supplemented with 10% fetal bovine serum. After 7 days in vitro, microglia are harvested by gentle shaking of the growth flask and plated in a 96 well plate at the density of 3×10^4 cells/well. The cells are used following day. Effects of compounds on LPS-induced TNFα production are determined by incubating cells with LPS along with or without test compounds for 4 hours. Following the 4 hour incubation, cell media are collected and concentration of TNFα was measured by EUSA.

[5] = Pharmacokinetic study, 4 hour time course; assay type: in vivo, Sprague-Dawley rats; details: rat; for AUC(0-inf) / Cmax / bioavailability: Sprague-Dawley, 10 mg/kg; for AUC(0-inf): AUCinf
Method: Two cohorts of Sprague-Dawley rats are used in two independent studies. All animals are fasted overnight before the experiment with free access to water. In study 1, a total of 18 rats are used for a 4 h time course pharmacokinetic (PK) study. […] On the day of the experiment, xamoterol is freshly prepared in saline. […] Four hours post-dose, rats are deeply anesthetized with isoflurane and blood samples are collected by cardiac puncture. In study 2, a total of 18 rats are used for a 20 min post-dose collection study. […] At 20 min post-dose, rats are deeply anesthetized with isoflurane and blood samples are collected by cardiac puncture. Brains are collected after perfusion with phosphate buffered saline. […] LC separation is carried out on a Phenomenex Synergi Polar-RP column (2.5 μm, 2 mm×50 mm) with a flow rate of 0.25 ml/min at room temperature. Mobile phase A consisted of 10 mM ammonium acetate and 0.1% formic acid in LCMS grade water. Mobile phase B consisted of 10 mM ammonium acetate and 0.1% formic acid in LCMS grade acetonitrile: water 90:10% (v/v). […] Five μl of the extracted samples is injected. The mass spectrometer is operated in the positive mode with multiple-reaction monitoring (MRM) with the transition m/z 334.1→210.1 and 334.1→100.2.

5XFAD mice = assay: Chronic xamoterol in 5XFAD mouse model of Alzheimer's disease, cortex qRT-PCR of inflammation genes; details: 3 mg/kg/day by mini-osmotic pump, 2.5 months
C57bl/6J mice = assay: Neurogenesis, doublecortin-immunoreactive neuroblast counts in dentate gyrus; details: 0.3 mg/kg subcutaneous daily from 3.5 to 6.0 months of age

Chain of 5-HT2B (P41595 whole entry, species assumed): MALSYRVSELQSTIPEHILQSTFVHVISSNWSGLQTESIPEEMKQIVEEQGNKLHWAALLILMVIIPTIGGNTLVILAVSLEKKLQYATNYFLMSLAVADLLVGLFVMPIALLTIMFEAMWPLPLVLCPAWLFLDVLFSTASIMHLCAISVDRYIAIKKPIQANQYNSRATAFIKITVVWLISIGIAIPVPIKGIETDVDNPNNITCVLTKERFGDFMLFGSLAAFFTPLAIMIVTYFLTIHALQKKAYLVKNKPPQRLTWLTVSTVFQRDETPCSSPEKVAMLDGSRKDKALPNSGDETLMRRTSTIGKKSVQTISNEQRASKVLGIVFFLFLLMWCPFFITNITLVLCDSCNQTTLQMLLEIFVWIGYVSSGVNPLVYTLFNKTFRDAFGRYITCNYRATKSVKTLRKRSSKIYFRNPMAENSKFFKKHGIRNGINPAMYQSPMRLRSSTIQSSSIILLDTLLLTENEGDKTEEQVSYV

Question: With `COc1ccccc1OCCNC[C@H](O)COc1ccc(O)cc1` [Compound 43] as the compound, how does the “affinity for 5-HT2B” value (5-HT2B) read?
Answer: significant affinity

Question: What about the “affinity for D3 dopaminergic receptor” value (D3 dopaminergic receptor) of the same compound?
Answer: significant affinity

Question: What about the “affinity for 5-HT1A” value (5-HT1A) of the same compound?
Answer: significant affinity

Question: What about the “affinity for opioid, histamine, and muscarinic acetylcholine receptors” value [1] of the same compound?
Answer: nominal affinity

Question: What about the “affinity for α1D adrenergic receptor” value (α1D adrenergic receptor) of the same compound?
Answer: significant affinity

Question: What about the “LPS-induced TNF-α response in periphery (plasma)” value [2] of the same compound?
Answer: markedly inhibited

Question: And the “LPS-induced inflammatory response in the brain (TNF-α, IL-1β, IL-6 gene expression)” value [2]?
Answer: attenuated

Question: What about the “effect on blood pressure” value [3] of the same compound?
Answer: significant reduction

Question: And the “effect on heart rate” value [3]?
Answer: did not produce significant effects

Question: And the inhibition at 10 µM [4]?
Answer: ~55%

Question: What about the AUC(0-inf) ([5]; in vivo, ip) of the same compound?
Answer: 2.16 ± 0.31 µg·h/mL

Question: And the Cmax ([5]; in vivo, ip, Cmax)?
Answer: 0.762 ± 0.067 µg/mL

Question: And the AUC(0-inf) ([5]; in vivo, iv)?
Answer: 1.8 ± 0.256 µg·h/mL

Question: What about the Cmax ([5]; in vivo, iv, Cmax) of the same compound?
Answer: 4 ± 1.11 µg/mL

Question: What about the bioavailability ([5]; in vivo, po) of the same compound?
Answer: 6%

Question: And the Cmax ([5]; in vivo, po, 10 mg/kg PO - Portal vein, read-out: Cmax)?
Answer: 0.946 µg/mL

Question: And the Cmax ([5]; in vivo, po, 10 mg/kg PO - Systemic (jugular vein), read-out: Cmax)?
Answer: 0.116 µg/mL

Question: And the “time of maximum concentration in systemic plasma” value ([5]; 10 mg/kg IP)?
Answer: 90 min

Question: And the clearance ([5]; 4 hour time-course PK study)?
Answer: cleared more slowly

Question: With `O=C(NCCNCC(O)COc1ccc(O)cc1)N1CCOCC1` (centres unmarked) [Xamoterol, reference compound] as the compound, how does the “expression of inflammation genes in cortex” value (5XFAD mice) read?
Answer: attenuated elevated expression of Iba1, CD74, CD14 and TGFb

Question: What about the “effect on blood pressure” value [3] of the same compound?
Answer: significant reduction

Question: What about the “effect on heart rate” value [3] of the same compound?
Answer: did not produce significant effects

Question: What about the AUC(0-inf) ([5]; in vivo, ip) of the same compound?
Answer: 2.83 ± 0.517 µg·h/mL

Question: What about the Cmax ([5]; in vivo, ip, Cmax) of the same compound?
Answer: 7.44 ± 0.73 µg/mL

Question: What about the AUC(0-inf) ([5]; in vivo, iv) of the same compound?
Answer: 2.45 ± 0.601 µg·h/mL

Question: And the Cmax ([5]; in vivo, iv, Cmax)?
Answer: 22.2 ± 4.03 µg/mL

Question: What about the bioavailability ([5]; in vivo, po) of the same compound?
Answer: 1.7%

Question: And the clearance ([5]; in vivo)?
Answer: cleared rapidly

Question: And the “neurogenesis (neuroblast counts in dentate gyrus)” value (C57bl/6J mice)?
Answer: increases neurogenesis
